# Values of other authors as cited in patent US20040235767A1, “Anti-angiogenic and immunotherapeutic compositions for cancer treatment” (priority 2004, published 2004).
# System: large tumours
# Settings: previously reported
smiles,measurement,value
"Cc1ccc2c(=O)c3cccc(CC(=O)O)c3oc2c1C [DMXAA, 5,6-dimethylxanthenone-4-acetic acid]",effect on large tumours in combination with B7-1-mediated immunotherapy,eradication of large tumours
